Reference: PubChem BioAssay AID248 (DTP/NCI, 2004)
“And” between values parts separate entries of the source, which are not always exact repeats. Identical values can stand only once. Inconclusive results and toxic doses are left out. Rule as the data show it: active = T/C of 150% or more; inactive = T/C below 125%.

Test system: L1210 leukemia ip in BDF1 mice, survival T/C
Assay: NCI In Vivo Anticancer Drug Screen. Data for tumor model L1210 Leukemia (intraperitoneal) in B6D2F1 (BDF1) mice
Conditions: higher = longer survival
How it was run: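 Tumor cells were implanted, animals were treated, and survival was followed. The result divides the treated measurement by the vehicle-control measurement.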

[1] = endpoint: mean survival time, dose: 25.0 mg/kg/injection, schedule: Q01DX009 (ip), vehicle: saline with Tween-80
[2] = endpoint: mean survival time, dose: 50.0 mg/kg/injection, schedule: Q01DX009 (ip), vehicle: saline with Tween-80
[3] = endpoint: mean survival time, dose: 100.0 mg/kg/injection, schedule: Q01DX009 (ip), vehicle: saline with Tween-80
[4] = endpoint: mean survival time, dose: 100.0 mg/kg/injection, schedule: Q04DX003 (ip), vehicle: saline with Tween-80
[5] = endpoint: mean survival time, dose: 100.0 mg/kg/injection, schedule: Q04DX003 (ip), vehicle: Klucel (hydroxypropylcellulose) (HPC)
[6] = endpoint: mean survival time, dose: 200.0 mg/kg/injection, schedule: Q04DX003 (ip), vehicle: Klucel (hydroxypropylcellulose) (HPC)
[7] = endpoint: mean survival time, dose: 400.0 mg/kg/injection, schedule: Q04DX003 (ip), vehicle: Klucel (hydroxypropylcellulose) (HPC)
[8] = endpoint: mean survival time, dose: 100.0 mg/kg/injection, schedule: Q01DX009 (ip), vehicle: saline
[9] = endpoint: mean survival time, dose: 100.0 mg/kg/injection, schedule: Q04DX003 (ip), vehicle: saline
[10] = endpoint: mean survival time, dose: 200.0 mg/kg/injection, schedule: Q01DX009 (ip), vehicle: saline
[11] = endpoint: mean survival time, dose: 200.0 mg/kg/injection, schedule: Q04DX003 (ip), vehicle: saline
[12] = endpoint: mean survival time, dose: 12.5 mg/kg/injection, schedule: Q01DX009 (ip), vehicle: Klucel (hydroxypropylcellulose) (HPC)
[13] = endpoint: mean survival time, dose: 25.0 mg/kg/injection, schedule: Q01DX009 (ip), vehicle: Klucel (hydroxypropylcellulose) (HPC)
[14] = endpoint: mean survival time, dose: 5.0 mg/kg/injection, schedule: Q01DX001 (ip), vehicle: saline
[15] = endpoint: mean survival time, dose: 10.0 mg/kg/injection, schedule: Q01DX001 (ip), vehicle: saline
[16] = endpoint: mean survival time, dose: 20.0 mg/kg/injection, schedule: Q01DX001 (ip), vehicle: saline

Measured: T/C

CNC1C(O)C(OC2C(N)CC(N)C(OC3OC(CN)C(O)C(O)C3O)C2O)OCC1(C)O (centres undefined)
inactive: endpoint: mean survival time, dose: 100.0 mg/kg/injection, schedule: Q04DX002 (ip), vehicle: saline 116 % of control | endpoint: mean survival time, dose: 200.0 mg/kg/injection, schedule: Q04DX002 (ip), vehicle: saline 100 % of control | endpoint: mean survival time, dose: 400.0 mg/kg/injection, schedule: Q04DX002 (ip), vehicle: saline 95 % of control

CC(=O)N1CCOC12CCN(Cc1ccccc1)CC2
inactive: [1] 92 % of control | [2] 98 % of control | [3] 88 % of control | [4] 100 % of control

O=C1C=CCCCC1
inactive: [1] 95 % of control | [2] 101 % of control | [3] 103 % of control | [4] 103 % of control

Cc1cccc(N/N=C2\CCSc3ccccc32)c1
inactive: [5] 95 % of control | [6] 98 % of control | [7] 104 % of control

CC(C)CC(N)C(=O)NCCCl (centres undefined)
inactive: endpoint: mean survival time, dose: 30.0 mg/kg/injection, schedule: Q01DX Z (ip), vehicle: saline 88 % of control | endpoint: mean survival time, dose: 100.0 mg/kg/injection, schedule: Q01DX Z (ip), vehicle: saline 102 % of control | endpoint: mean survival time, dose: 300.0 mg/kg/injection, schedule: Q01DX Z (ip), vehicle: saline 88 % of control

CC(C1CCC2CCC3CCCC1C32)C1CCC2CCC3CCCC1C32 (centres undefined)
inactive: endpoint: mean survival time, dose: 100.0 mg/kg/injection, schedule: Q01DX001 (ip), vehicle: other 99 % of control | endpoint: mean survival time, dose: 200.0 mg/kg/injection, schedule: Q01DX001 (ip), vehicle: other 103 % of control | endpoint: mean survival time, dose: 400.0 mg/kg/injection, schedule: Q01DX001 (ip), vehicle: other 101 % of control

CC(C)N1c2c(nc(N)[nH]c2=O)NCC1CNc1ccc(C(=O)NC(CCC(=O)O)C(=O)O)cc1 (centres undefined)
inactive: [8] 102 % of control | [9] 104 % of control | [10] 102 % of control | [11] 98 % of control | endpoint: mean survival time, dose: 400.0 mg/kg/injection, schedule: Q01DX009 (ip), vehicle: saline 102 % of control | endpoint: mean survival time, dose: 400.0 mg/kg/injection, schedule: Q04DX003 (ip), vehicle: saline 98 % of control

NCC1OC(n2cnc3c(=O)[nH]c(N)nc32)C(O)C1O (centres undefined)
inactive: endpoint: mean survival time, dose: 100.0 mg/kg/injection, schedule: Q01DX001 (ip), vehicle: saline 101 % of control | endpoint: mean survival time, dose: 200.0 mg/kg/injection, schedule: Q01DX001 (ip), vehicle: saline 95 % of control | endpoint: mean survival time, dose: 400.0 mg/kg/injection, schedule: Q01DX001 (ip), vehicle: saline 91 % of control

Nc1cc2nc3ccccc3sc-2cc1=O
inactive: endpoint: median survival time, dose: 50.0 mg/kg/injection, schedule: Q01DX001 (ip), vehicle: Klucel (hydroxypropylcellulose) (HPC) 100 % of control | endpoint: median survival time, dose: 50.0 mg/kg/injection, schedule: Q01DX001 (oral), vehicle: Klucel (hydroxypropylcellulose) (HPC) 105 % of control | endpoint: median survival time, dose: 50.0 mg/kg/injection, schedule: Q01DX009 (ip), vehicle: Klucel (hydroxypropylcellulose) (HPC) 102 % of control | endpoint: median survival time, dose: 50.0 mg/kg/injection, schedule: Q01DX009 (oral), vehicle: Klucel (hydroxypropylcellulose) (HPC) 114 % of control | endpoint: median survival time, dose: 50.0 mg/kg/injection, schedule: Q04DX003 (ip), vehicle: Klucel (hydroxypropylcellulose) (HPC) 101 % of control | endpoint: median survival time, dose: 100.0 mg/kg/injection, schedule: Q01DX001 (ip), vehicle: Klucel (hydroxypropylcellulose) (HPC) 93 % of control | endpoint: median survival time, dose: 100.0 mg/kg/injection, schedule: Q01DX001 (oral), vehicle: Klucel (hydroxypropylcellulose) (HPC) 105 % of control | endpoint: median survival time, dose: 100.0 mg/kg/injection, schedule: Q01DX009 (ip), vehicle: Klucel (hydroxypropylcellulose) (HPC) 97 % of control | endpoint: median survival time, dose: 100.0 mg/kg/injection, schedule: Q01DX009 (oral), vehicle: Klucel (hydroxypropylcellulose) (HPC) 114 % of control | endpoint: median survival time, dose: 100.0 mg/kg/injection, schedule: Q04DX003 (ip), vehicle: Klucel (hydroxypropylcellulose) (HPC) 94 % of control | endpoint: median survival time, dose: 200.0 mg/kg/injection, schedule: Q01DX001 (ip), vehicle: Klucel (hydroxypropylcellulose) (HPC) 96 % of control | endpoint: median survival time, dose: 200.0 mg/kg/injection, schedule: Q01DX001 (oral), vehicle: Klucel (hydroxypropylcellulose) (HPC) 106 % of control | endpoint: median survival time, dose: 200.0 mg/kg/injection, schedule: Q01DX009 (ip), vehicle: Klucel (hydroxypropylcellulose) (HPC) 102 % of control | endpoint: median survival time, dose: 200.0 mg/kg/injection, schedule: Q01DX009 (oral), vehicle: Klucel (hydroxypropylcellulose) (HPC) 113 % of control | endpoint: median survival time, dose: 200.0 mg/kg/injection, schedule: Q04DX003 (ip), vehicle: Klucel (hydroxypropylcellulose) (HPC) 101 % of control | endpoint: median survival time, dose: 400.0 mg/kg/injection, schedule: Q01DX001 (ip), vehicle: Klucel (hydroxypropylcellulose) (HPC) 96 % of control | endpoint: median survival time, dose: 400.0 mg/kg/injection, schedule: Q01DX001 (oral), vehicle: Klucel (hydroxypropylcellulose) (HPC) 110 % of control | endpoint: median survival time, dose: 400.0 mg/kg/injection, schedule: Q01DX009 (ip), vehicle: Klucel (hydroxypropylcellulose) (HPC) 97 % of control | endpoint: median survival time, dose: 400.0 mg/kg/injection, schedule: Q01DX009 (oral), vehicle: Klucel (hydroxypropylcellulose) (HPC) 112 % of control | endpoint: median survival time, dose: 400.0 mg/kg/injection, schedule: Q04DX003 (ip), vehicle: Klucel (hydroxypropylcellulose) (HPC) 94 % of control

[O-][n+]1ccccc1SSc1cccc[n+]1[O-]
inactive: endpoint: mean survival time, dose: 6.25 mg/kg/injection, schedule: Q01DX009 (ip), vehicle: Klucel (hydroxypropylcellulose) (HPC) 99 % of control | [12] 96 % of control and 98 % of control | [13] 88 % of control

CCC[CH2][Sn]([CH2]CCC)=[N]S(=O)(=O)c1ccc(Cl)c(C)c1
inactive: [14] 98 % of control | [15] 98 % of control | [16] 109 % of control

Nc1ncnc2c1ncn2C1OC(CF)C(O)C1O (centres undefined)
inactive: endpoint: mean survival time, dose: 50.0 mg/kg/injection, schedule: Q01DX009 (ip), vehicle: saline 101 % of control | [8] 100 % of control | [10] 114 % of control

OC(c1ccccc1)C(O)c1ccccc1 (centres undefined)
inactive: [14] 103 % of control | [15] 100 % of control | [12] 93 % of control | [16] 97 % of control | [13] 92 % of control | endpoint: mean survival time, dose: 40.0 mg/kg/injection, schedule: Q01DX001 (ip), vehicle: saline 92 % of control | endpoint: mean survival time, dose: 50.0 mg/kg/injection, schedule: Q01DX009 (ip), vehicle: Klucel (hydroxypropylcellulose) (HPC) 93 % of control | endpoint: mean survival time, dose: 80.0 mg/kg/injection, schedule: Q01DX001 (ip), vehicle: saline 98 % of control

CCCCC(NC(=O)CN)C(=O)O (centres undefined)
inactive: endpoint: mean survival time, dose: 25.0 mg/kg/injection, schedule: Q01DX001 (ip), vehicle: Klucel (hydroxypropylcellulose) (HPC) 105 % of control | endpoint: mean survival time, dose: 50.0 mg/kg/injection, schedule: Q01DX001 (ip), vehicle: Klucel (hydroxypropylcellulose) (HPC) 103 % of control | endpoint: mean survival time, dose: 100.0 mg/kg/injection, schedule: Q01DX001 (ip), vehicle: Klucel (hydroxypropylcellulose) (HPC) 100 % of control

[C-]#[N+]C1(C)CC1(c1ccccc1)c1ccccc1 (centres undefined)
inactive: endpoint: mean survival time, dose: 50.0 mg/kg/injection, schedule: Q04DX003 (ip), vehicle: saline 103 % of control | [9] 110 % of control | [11] 95 % of control

Nc1ccc(/C=C/c2ccc(N)cc2)cc1
inactive: [5] 97 % of control | [6] 94 % of control | [7] 94 % of control

CCCCOP(=O)(Cc1ccccc1)Oc1ccccc1 (centres undefined)
inactive: endpoint: mean survival time, dose: 100.0 mg/kg/injection, schedule: Q01DX009 (ip), vehicle: Klucel (hydroxypropylcellulose) (HPC) 95 % of control | endpoint: mean survival time, dose: 200.0 mg/kg/injection, schedule: Q01DX009 (ip), vehicle: Klucel (hydroxypropylcellulose) (HPC) 97 % of control | endpoint: mean survival time, dose: 400.0 mg/kg/injection, schedule: Q01DX009 (ip), vehicle: Klucel (hydroxypropylcellulose) (HPC) 105 % of control

O=C(S)CN1C(=O)c2ccccc2C1=O
inactive: endpoint: mean survival time, dose: 100.0 mg/kg/injection, schedule: Q01DX001 (ip), vehicle: carboxymethylcellulose (CMC) 91 % of control | endpoint: mean survival time, dose: 200.0 mg/kg/injection, schedule: Q01DX001 (ip), vehicle: carboxymethylcellulose (CMC) 93 % of control | endpoint: mean survival time, dose: 400.0 mg/kg/injection, schedule: Q01DX001 (ip), vehicle: carboxymethylcellulose (CMC) 102 % of control

CC(=O)Nc1nc(C)c(CCCN(c2ccccc2)S(=O)(=O)c2ccc(N)cc2)c(=O)[nH]1
inactive: endpoint: mean survival time, dose: 200.0 mg/kg/injection, schedule: Q01DX001 (ip), vehicle: Klucel (hydroxypropylcellulose) (HPC) 88 % of control

COc1ccc(CCCC(C)(C)O)cc1
inactive: [2] 94 % of control | [3] 97 % of control
